The values that follow come from patent US6015877A, “Compounds for inhibition of proteolysis” (President and Fellows of Harvard College, priority 1996, dated 2000).

Where “and” joins values, the source holds several entries; their conditions need not be identical. Equal entries are not always repeated. Entries after “also recorded” stand apart in the source; their conditions may differ. Where two headings read alike, the source gives them in different places. Where no end group is shown, it is not given here. [ ]: non-standard residue; d: D form. The star is where a group is joined. Farnesyl = CC(C)=CCC/C(C)=C/CC/C(C)=C/C*

Broadly, the Km is the concentration of substrate that gives half-maximal velocity. The Vmax is the rate approached at saturating substrate.

The subject of assay [1] is isoprenylated protein endoprotease. As to the kind of experiment: Inhibition of the solubilized / partially purified enzyme by non-halomethyl ketone inhibitors. Format: biochemical, bovine. The note with it: for enzyme activity (%) detergent extract / enzyme activity (%) partially purified: control 100.
Assay [2] deals with protease of bovine liver microsomal membranes (isoprenylated protein endoprotease). As to the kind of experiment: Proteolysis of N-[3H]acetyl isoprenylated peptide substrates by calf liver microsomal membranes (N-[3H]-AFC formation, HPLC). The following applies: for activity as substrate (Table 1, words): 10 mM, prolonged incubation time (16 hours), detection limit 1.13 pmol/min/mg.

Assay [3] concerns the target T1, cysteine protease apopain (Homo sapiens, UniProt P42574).
T1 sequence (P42574 29-175 limits assumed): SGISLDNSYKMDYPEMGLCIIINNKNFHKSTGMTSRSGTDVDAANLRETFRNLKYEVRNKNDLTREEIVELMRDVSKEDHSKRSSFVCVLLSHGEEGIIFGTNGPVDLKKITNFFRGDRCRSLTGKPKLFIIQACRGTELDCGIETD
T1 sequence (P42574 176-277 limits assumed): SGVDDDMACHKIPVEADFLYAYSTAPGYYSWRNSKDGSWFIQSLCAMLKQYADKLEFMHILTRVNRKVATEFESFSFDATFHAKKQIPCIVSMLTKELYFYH
The note with it: cited from earlier work.

Assay [4] relates to isoprenylated protein endoprotease. As to the kind of experiment: Inhibition of the isoprenylated protein endoprotease by halomethyl ketones (preincubation, 20-fold dilution, Kitz-Wilson). It counts as biochemical, bovine. The following applies: for enzyme activity (%): diluted 20-fold, control 100; for inhibition / inactivation of the endoprotease (in words): solubilized endoprotease. The procedure: A typical procedure of inhibition is given here to illustrate the details of this procedure. A CHAPSO-solubilized protein preparation (2.5 mg/mL) or a partially […] protein preparation (0.17 mg/mL) was incubated with chloromethyl ketone inhibitors at 37° C. for 30 minutes. Aliquots were removed at timed intervals and diluted with assay buffer E for the solubilized preparation of with assay buffer D for the partially purified protein preparation in 20-fold. The final protein and substrate concentrations were 0.12 mg/mL (or 8.5 μg of partially purified protein preparation per milliliter) and 2.0 μM, respectively, except as otherwise noted; the residual enzyme activity was assayed as described above. TPCK and BFC-CMK were characterized by kinetic measurements. The bimolecular rate constant Kinh /K1 and pseudo-first-order kinetic rate constant Kinh were obtained using the Kitz-Wilson method (Kitz & Wilson, 1962). According to Kitz-Wilson method, the irreversible modification of an enzyme by an active-site directed inhibitor is given by [drawing 9] where K1 =[E]·[I]/[E·I] and -d([E]+[E·I])/dt=Kinh [E·I]. [I] and [E] are inhibitor and enzyme concentrations at a certain time, respectively. Under conditions here [I]>>[Eo ], which is the enzyme concentration at time zero, [I] is constant. Under conditions where the enzyme-inhibitor solution is extensively diluted before the assay, a simplified equation 2 can be obtained as follows: […]
To further establish the specificity of the inactivation process, several commercially available haloketones were studies as putative inactivators of the endoprotease. The structures of these analogs are shown and their activities are shown in Table V. In these studies, the solubilized protein material was preincubated with a chloromethyl ketone inhibitor at 284 μM (unless otherwise noted) for 30 minutes; then 2.5-μL aliquots of the incubated solution were taken and diluted 20-fold for assay of the residual enzyme activity. […] Save for the dipeptide derivatives (ZGGFCMK and ZAPFCMK) derived from TPCK, the other halomethyl ketones tested are virtually inert.
FIG. 16(A) Time-dependent inhibition. 16B Kitz-Wilson plot (the upper panel) for the inhibition of the isoprenylated protein endoprotease by TPCK. The inhibition studies were carried out at 37° C. using the solubilized endoprotease preparation. Aliquote of the inhibitor-enzyme solution were taken at interval times and diluted by a factor of 20, and the enzyme activity was assayed as described in Methods. (B) (the lower panel) the concentration-dependent inhibition of the endoprotease by TPCK. The inhibition studies were carried out at 37° C. The crude CHAPSO-solubilized endoprotease preparations (0.12 mg/mL) were preincubated for 60 min in 50 μL of buffer E in the presence of 284 μM TPCK or TLCK with 6% DMSO and 2% 2-propanol. After the incubation, the reaction solution was diluted by a factor of 20, and the remaining enzyme activity of the inhibitor-enzyme solution was assayed as described in Methods. Data were represented in mean from duplicate runs.

Assay [5] deals with membrane-bound isoprenylated protein endoprotease. The note with it: cited from earlier work.
Setting [6] is: calf liver microsomal membranes.
Where [7] appears, read: 284 μM inhibitor, solubilized protein preincubated 30 minutes.
The mark [8] stands for this setting: Kitz-Wilson plot using the partially purified enzyme preparation.
[9] abbreviates: Table 1, same enzyme preparation, average of two determinations ±S.D.

Take `O[C@H](CS)[C@H](O)CS` (racemic) [DTT, Dithiothreitol]: in assay [1] (1-5 mM), the “effect on the solubilized enzyme's activity (in words)” value was “Neither DTT (1-5 mM) nor glycerol (20%) affects the enzyme's activity”. The “enzyme activity (%) detergent extract” value in assay [1] (inhibitor 5 mM) is given as 108 ± 8%.

On to “N-[^3 H]-Acetyl-S-thio-t-butyl-L-Cys-L-Val-L-Ile [t-butylthio-Cys--Val--Ile (5)]”, for which the “activity as substrate (Table 1, words)” value in assay [2] was “inactive”. Further, the “substrate activity (in words)” value in assay [2] (setting [6]) is recorded as “Neither analog was measurably processed”.

In the case of `OCC(O)CO` [glycerol], the “effect on the solubilized enzyme's activity (in words)” value in assay [1] (20%) is “Neither DTT (1-5 mM) nor glycerol (20%) affects the enzyme's activity”.

As for “N-[^3 H]-acetyl-S-all-trans-farnesyl-L-Cys-L-Val-D-Ile [AFC--Val--Ile (8)]”, the “activity as substrate (Table 1, words)” value in assay [2] was “inactive”. The “substrate activity (in words)” value in assay [2] (setting [6]) was “did not have substrate activity”.

For the compound `O=S(=O)(F)Cc1ccccc1` [PMSF, phenylmethanesulfonyl fluoride], in assay [1] (1 mM), the “inhibition of the endoprotease (in words)” value is given as “not inhibited”. Besides, in assay [1] (inhibitor 1 mM), the “enzyme activity (%) detergent extract” value is given as 93 ± 3%.

In the case of `CCN1C(=O)C=CC1=O` [N-ethylma-leimide], the “inhibition of apopain (in words)” value in assay [3] is “inhibited”.

Consider “N-[^3 H]-Acetyl-S-all-trans-geranylgeranyl-D-cys-L-Val-L-Ile [AGGC--Val--Ile (2) D--L--L]”, for which, in assay [2], the “activity as substrate (Table 1, words)” value was “inactive”. The “substrate activity (in words)” value in assay [2] (setting [6]) was “no measurable protease activity”.

Turning to “N-Benzyloxycarbonylglycylglycyl-S-all-trans-farnesyl-L-cysteine Chloromethyl Ketone [ZGGFCCMK]”, the “enzyme activity (%)” value in assay [4] (setting [7]) is on record as 44 ± 1%. Moreover, the “inhibition / inactivation of the endoprotease (in words)” value (from here on “inhibition / inactivation”) in assay [4] was “good inhibitors”.

As for “Nα-tosyl-L-lysine chloromethyl ketone [TLCK]”, in assay [4] (1000 μM inhibitor, solubilized protein preincubated), the “enzyme activity (%)” value is listed as 94 ± 15%. For the same compound, the “inhibition / inactivation” value in assay [4] is recorded as “did not inhibit the enzyme activity; also recorded: does not inhibit the enzyme activity”. In addition, the “inhibition of apopain (in words)” value in assay [3] is listed as “not”.

Regarding “N-Ac-S-all-trans-farnesyl-D-Cys-L-Val-L-Ile [AFC--Val--Ile (6)]”, the “activity as substrate (Table 1, words)” value in assay [2] is “inactive”.

For aprotinin, in assay [5] (0.6 μM), the “inhibition of the endoprotease (in words)” value is recorded as “not inhibited”.

For the compound “N-[^3 H]-Acetyl-L-Cys-L-Val-L-Ile [Cys--Val--Ile (4)]”, in assay [2], the “activity as substrate (Table 1, words)” value is “inactive”. Besides, in assay [2] (setting [6]), the “substrate activity (in words)” value is “Neither analog was measurably processed”.

As for `CC(C)=CCC/C(C)=C/CC/C(C)=C/CSC[C@H](NC(=O)OC(C)(C)C)C(=O)CCl` (stereo in doubt) [BFCCMK, N-Boc-S-all-trans-Farnesyl-L-cysteine Chloromethyl Ketone], the “enzyme activity (%)” value in assay [4] (setting [7]) is reported as 27 ± 2%. In assay [4] (setting [8]), the “Kinh (s^-1)” value is recorded as “(5.9 ± 0.4) × 10^-3 s^-1”; the “Kinh /K1” value was 19.4 M⁻¹ s⁻¹ and 19.4 ± 1 M⁻¹ s⁻¹. In assay [4] (Kitz-Wilson plot using the partially purified enzyme preparation, read-out: K1), the Ki was 30 µM and ~30 µM. In addition, in assay [4] (compared with TPCK), the “increase of the second-order rate constant” value is 15 fold. Moreover, the “inhibition / inactivation” value in assay [4] was “good inhibitors; also recorded: quite a potent inactivator of the endoprotease; also recorded: most potent inactivator of the endoprotease; also recorded: much more potent inactivator of the endoprotease than TPCK”.

As to `CC(=O)N[C@@H](CSC/C=C(\C)CC/C=C(\C)CCC=C(C)C)C(N)=O` [AFC amide], in assay [2] (setting [6]), the “substrate activity (in words)” value was “not a substrate for the enzyme”.

Consider `CC(C)C[C@H](NC(=O)[C@@H](NC(=O)N[C@@H](Cc1ccccc1)C(=O)O)[C@@H]1CCN=C(N)N1)C(=O)N[C@H](C=O)Cc1ccccc1` [Chymostatin], for which the “inhibition of the endoprotease (in words)” value in assay [1] (0.33 mM) is “not inhibited”. In assay [1] (inhibitor 0.33 mM), the “enzyme activity (%) detergent extract” value turned out to be 104 ± 8% and the “enzyme activity (%) partially purified” value is 99 ± 1%. In addition, in assay [1] (inhibitor 0.33 mM, listed as chymostatin), the “enzyme activity (%) partially purified” value is on record as “not inhibited”.

Consider `N=C(N)c1ccc(CS(=O)(=O)F)cc1` [APMSF, 4-(amidinophe-nyl)methanesulfonyl fluoride], for which the “inhibition of the endoprotease (in words)” value in assay [5] is “not inhibited”.

Consider “N-acetyl-S-all-trans-farnesyl-L-Cys-D-Val-L-Ile [AFC--Val--Ile (7)]”, for which, in assay [2], the “activity as substrate (Table 1, words)” value is “inactive”. Further, in assay [2] (setting [6]), the “substrate activity (in words)” value was “did not have substrate activity”.

On to “N-[^3 H]-acetyl-S-all-trans-farnesyl-L-Cys-L-Val-L-Ile-D-Met ({(3H)‑acetyl}-C(Farnesyl)VI[dM]) [AFC--Val--Ile--Met (10)]”, for which the “activity as substrate (Table 1, words)” value in assay [2] is on record as “weakly active (detectable activity is observed under prolonged incubation periods, but the activity is <5% that observed with AFC-V-I-S)”. For the same compound, the “substrate activity (in words)” value in assay [2] (setting [6]) is listed as “processed to some extent”.

For “N-acetyl-S-trans-geranyl-D-Cys-L-Val-Ile [AGC--Val--Ile (3) D--L--L]”, in assay [2], the “activity as substrate (Table 1, words)” value is “inactive”. Moreover, in assay [2] (setting [6]), the “substrate activity (in words)” value is recorded as “no measurable protease activity”.

Take “β-(2-naphthyl)-L-alanine chloromethyl ketone [2-Nal-Ala-CMK]”: the “enzyme activity (%)” value in assay [4] (setting [7]) stood at 53 ± 1%. Besides, in assay [4], the “inhibition / inactivation” value is recorded as “inhibit the endoprotease well”.

“N-acetyl-S-trans-geranyl-L-Cys-L-Val-L-Ile [AGC--Val--Ile (3)]”: in assay [2] (setting [9]), the Km was 14.6 ± 2.14 µM and the “Vmax” value came to 19.35 ± 1.12 pmol/min/mg. For the same compound, in assay [2] (setting [6]), the “substrate activity (in words)” value was “good substrates”.

Turning to “N-[^3 H-Acetyl-S-all-trans-geranylgeranyl-L-Cys-L-Val-L-ile [AGGC--Val--Ile (2)]”, in assay [2] (setting [9]), the Km is 4.01 ± 0.4 µM and the “Vmax” value came to 26.20 ± 0.97 pmol/min/mg. Also, in assay [2] (setting [6]), the Km is 14.6 µM, the Vmax was 19.35 pmol/min/mg and the “substrate activity (in words)” value is reported as “good substrates”.

For the compound bis(p-nitro-phenyl)phosphate [BNPP], in assay [1] (1 mM), the “inhibition of the endoprotease (in words)” value is “not inhibited”. Moreover, the “enzyme activity (%) detergent extract” value in assay [1] (inhibitor 1 mM) was 100 ± 8%.

For `CC(=O)N[C@@H](CC(C)C)C(=O)N[C@@H](CC(C)C)C(=O)N[C@H](C=O)CCCNC(=N)N` [leupeptin], in assay [5] (1.0 μM), the “inhibition of the endoprotease (in words)” value is “not inhibited”.

In the case of “N-acetyl-S-all-trans-farnesyl-D-Cys-D-Val-L-Ile [D-D-L]”, in assay [2] (setting [6]), the “substrate activity (in words)” value was “inactive”.

In the case of `CC(C)=CCC/C(C)=C/CC/C(C)=C/CSC[C@@H](C=O)NC(=O)OC(C)(C)C` (stereo in doubt) [N-Boc-S-all-trans-farnesyl-L-cysteine Aldehyde], in assay [5] (Ma et al., 1993), the “inhibition of the enzyme (in words)” value is “fairly potent competitive inhibitor”.
